Measurements: US20160106439A1, “PNEUMATIC TOURNIQUET” (BIONUMERIK PHARMACEUTICALS, INC., priority 2013, published 2016)
Read-outs that look alike come from different tables or passages of the source.

Key:
[1] = molecular target: T1, mammalian thioredoxin reductase (TrxR) (Homo sapiens, UniProt Q16881); details: cited from earlier work
T1 sequence (Q16881 1-499 isoform Q16881-5): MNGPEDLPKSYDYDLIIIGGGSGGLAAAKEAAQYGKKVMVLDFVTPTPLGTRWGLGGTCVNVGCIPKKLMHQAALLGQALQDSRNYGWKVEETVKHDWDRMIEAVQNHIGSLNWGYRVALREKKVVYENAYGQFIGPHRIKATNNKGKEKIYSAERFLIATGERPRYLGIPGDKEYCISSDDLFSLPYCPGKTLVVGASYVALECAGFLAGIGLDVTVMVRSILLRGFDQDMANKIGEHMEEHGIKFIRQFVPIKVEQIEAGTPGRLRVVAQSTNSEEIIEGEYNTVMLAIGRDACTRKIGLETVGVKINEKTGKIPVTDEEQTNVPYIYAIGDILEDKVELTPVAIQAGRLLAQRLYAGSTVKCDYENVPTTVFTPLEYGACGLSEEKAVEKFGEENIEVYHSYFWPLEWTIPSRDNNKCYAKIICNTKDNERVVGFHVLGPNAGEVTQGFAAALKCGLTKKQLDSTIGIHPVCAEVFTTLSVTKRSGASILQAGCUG

[2] = molecular target: T2, glutathione reductase (GR) (Homo sapiens, UniProt P00390); details: cited from earlier work
T2 sequence (P00390 44-522): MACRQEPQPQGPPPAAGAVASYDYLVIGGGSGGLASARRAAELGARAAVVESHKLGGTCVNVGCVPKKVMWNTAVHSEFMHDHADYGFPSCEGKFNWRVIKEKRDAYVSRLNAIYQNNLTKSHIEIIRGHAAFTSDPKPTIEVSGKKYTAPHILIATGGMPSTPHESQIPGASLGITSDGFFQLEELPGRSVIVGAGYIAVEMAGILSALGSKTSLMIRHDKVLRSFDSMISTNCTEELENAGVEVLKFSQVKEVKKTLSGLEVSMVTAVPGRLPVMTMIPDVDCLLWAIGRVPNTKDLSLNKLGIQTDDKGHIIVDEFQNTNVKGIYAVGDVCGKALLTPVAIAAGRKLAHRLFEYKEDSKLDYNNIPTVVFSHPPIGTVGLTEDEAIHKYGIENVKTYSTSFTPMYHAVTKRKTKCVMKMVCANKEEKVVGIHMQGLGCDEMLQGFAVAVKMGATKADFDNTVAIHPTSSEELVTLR

ErbB-1 = ErbB-1 (Homo sapiens, UniProt P00533); details: ability to activate the receptor; cited from earlier work
ErbB-2 = ErbB-2 (Homo sapiens, UniProt P04626); design: key: the “+” and “−” symbols signify the ability and inability to activate each of the ErbB receptors, respectively; the “+” and “−” symbols signify the ability and inability to activate each of the ErbB receptors, respectively; details: ability to activate the receptor; cited from earlier work
ErbB-3 = ErbB-3 (Homo sapiens, UniProt P21860); design: key: the “+” and “−” symbols signify the ability and inability to activate each of the ErbB receptors, respectively; the “+” and “−” symbols signify the ability and inability to activate each of the ErbB receptors, respectively; details: ability to activate the receptor; cited from earlier work
ErbB-4 = ErbB-4 (Homo sapiens, UniProt Q15303); design: key: the “+” and “−” symbols signify the ability and inability to activate each of the ErbB receptors, respectively; the “+” and “−” symbols signify the ability and inability to activate each of the ErbB receptors, respectively; details: ability to activate the receptor; cited from earlier work
ErbB-4, sequence (Q15303 26-1308, species assumed): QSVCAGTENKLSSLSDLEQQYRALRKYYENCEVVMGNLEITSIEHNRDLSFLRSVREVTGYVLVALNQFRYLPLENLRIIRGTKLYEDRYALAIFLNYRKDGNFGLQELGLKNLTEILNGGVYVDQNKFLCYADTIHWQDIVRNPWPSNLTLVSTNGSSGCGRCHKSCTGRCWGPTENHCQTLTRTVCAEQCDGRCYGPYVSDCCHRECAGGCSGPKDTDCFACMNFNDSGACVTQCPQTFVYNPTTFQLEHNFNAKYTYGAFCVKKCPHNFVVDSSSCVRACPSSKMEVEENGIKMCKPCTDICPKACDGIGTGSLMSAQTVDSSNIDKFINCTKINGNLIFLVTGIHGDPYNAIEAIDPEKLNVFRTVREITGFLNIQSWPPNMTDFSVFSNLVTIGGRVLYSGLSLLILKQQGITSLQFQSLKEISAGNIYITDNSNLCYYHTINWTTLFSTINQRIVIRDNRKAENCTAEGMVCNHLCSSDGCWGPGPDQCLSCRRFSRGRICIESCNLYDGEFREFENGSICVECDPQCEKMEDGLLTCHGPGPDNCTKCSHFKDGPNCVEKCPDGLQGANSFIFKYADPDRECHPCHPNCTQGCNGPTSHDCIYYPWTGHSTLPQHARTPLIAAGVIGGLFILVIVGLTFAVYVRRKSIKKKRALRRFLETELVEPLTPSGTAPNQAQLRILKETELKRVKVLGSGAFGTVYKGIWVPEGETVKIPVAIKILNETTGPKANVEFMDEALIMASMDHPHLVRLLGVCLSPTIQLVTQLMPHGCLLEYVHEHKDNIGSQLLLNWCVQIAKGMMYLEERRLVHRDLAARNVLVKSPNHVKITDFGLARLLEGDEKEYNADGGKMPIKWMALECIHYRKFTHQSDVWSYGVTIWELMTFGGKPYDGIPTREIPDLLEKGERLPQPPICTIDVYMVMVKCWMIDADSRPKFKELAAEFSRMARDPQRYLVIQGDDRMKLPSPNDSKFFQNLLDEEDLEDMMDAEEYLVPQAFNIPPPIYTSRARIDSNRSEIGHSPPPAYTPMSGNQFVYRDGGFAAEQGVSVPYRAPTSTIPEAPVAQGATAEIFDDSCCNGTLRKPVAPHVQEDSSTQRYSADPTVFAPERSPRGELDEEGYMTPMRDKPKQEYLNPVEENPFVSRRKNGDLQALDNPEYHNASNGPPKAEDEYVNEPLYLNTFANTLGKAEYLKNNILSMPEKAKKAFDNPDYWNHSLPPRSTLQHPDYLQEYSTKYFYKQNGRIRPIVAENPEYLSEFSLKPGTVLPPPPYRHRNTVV

WT EGFR kinase = WT EGFR kinase (Homo sapiens, UniProt P00533); experiment: WT EGFR kinase assay (ADP-glo); details: for potentiation of Erlotinib inhibition of WT EGFR kinase activity: 10 μM and 100 μM ATP
T790M EGFR kinase = T790M EGFR kinase (Homo sapiens, UniProt P00533, T790M); experiment: T790M EGFR kinase assay (ADP-glo); type: biochemical; details: for IC50: read-out: IC50 on T790M EGFR kinase activity; for potentiation of Erlotinib inhibition of T790M EGFR kinase activity: 10 μM and 100 μM ATP
Recombinant human Trx [3] = molecular target: T3, Recombinant human Trx (Homo sapiens, UniProt P10599); experiment: LC MS of Trypsin digested Trx after incubation with Tavocept, mesna or glutathione; type: binding; design: purchased Sigma (SigmaAldrich); host or cells: E. coli; details: control reactions with glutathione
T3 sequence (P10599 1-105): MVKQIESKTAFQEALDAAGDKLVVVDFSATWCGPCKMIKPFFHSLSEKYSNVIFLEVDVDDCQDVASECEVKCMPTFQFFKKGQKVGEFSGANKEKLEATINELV

[4] = system: bovine brain microtubule protein (α-/β-tubulin); experiment: Microtubule protein polymerization assay (OD350) and electron microscopy; type: biochemical; details: monoaquocisplatin 36 μM
Recombinant human Trx [5] = molecular target: T3, Recombinant human Trx; type: biochemical; design: 6xHis (N); purchased Sigma (Trx); American Diagnostica (bovine TrxR); details: over MSSH and MSSCE
Description: See, Luthman M and Holmgren A. Rat liver thioredoxin and thioredoxin reductase: purification and characterization. […] All disulfides were added to reactions as 10x solutions in buffer. The total volume of each reaction was 0.1 mL. Reactions were initiated by the addition of TrxR and were incubated at 25° C. for 40 minutes. Reactions were analyzed using a Molecular Devices SpectraMax Plus UV/vis plate reader and the activity was calculated using a 4 minute linear portion of each assay.

TrxR/Trx system = molecular target: T4, TrxR/Trx system (Homo sapiens, UniProt P10599); experiment: NADPH oxidation by TrxR and Trx; type: biochemical; details: increasing concentrations of the substance
T4 construct: 6xHis (N); purchased Sigma (Trx); American Diagnostica (bovine TrxR)
T4 sequence (P10599 1-105): T3 sequence (P10599 1-105)

[6] = read-out: IC50 on WT EGFR kinase activity, 10 μM ATP
[7] = read-out: IC50 on WT EGFR kinase activity, 100 μM ATP
[8] = read-out: IC50 on WT EGFR kinase activity, 250 μM ATP, conducted only once
[9] = IC50 on WT EGFR kinase activity, 10 μM ATP
[10] = IC50 on WT EGFR kinase activity, 100 μM ATP
[11] = IC50 on WT EGFR kinase activity, 250 μM ATP, conducted only once

O=P1(N(CCCl)CCCl)NCCCO1 (centres unmarked) [cyclophosphamide]
Inhibition of TrxR [1]: irreversibly inhibited
Inhibition of GR [2]: not GR

epiregulin: growth factor ligand of ErbB receptors
ErbB-1 (ErbB-1): +
ErbB-2 (ErbB-2): −
ErbB-3 (ErbB-3): −
ErbB-4 (ErbB-4): +

O=P1(NCCCl)OCCCN1CCCl (centres unmarked) [ifosfamide]
Inhibition of TrxR [1]: inhibited

N.N.[Cl][Pt][Cl] [cisplatin]
Inhibition of TrxR [1]: irreversibly inhibited
Inhibition of GR [2]: not GR

NC(CSSCCS(=O)(=O)O)C(=O)NC(CCC(=O)O)C(=O)O (centres unmarked) [mesna-cysteinylglutamate]
potentiation of Erlotinib inhibition of WT EGFR kinase activity (WT EGFR kinase): effectively potentiated
IC50 (WT EGFR kinase; [6]): 714 ± 120 µM
IC50 (WT EGFR kinase; [7]): 815 ± 20 µM
IC50 (WT EGFR kinase; [8]): 690 µM
IC50 (T790M EGFR kinase; 10 μM ATP): 1090 ± 190 µM
potentiation of Erlotinib inhibition of T790M EGFR kinase activity (T790M EGFR kinase): effectively potentiated
IC50 (T790M EGFR kinase; 100 μM ATP): 1050 ± 80 µM

N.N.O=C([O-])C1(C(=O)[O-])CCC1.[Pt+2] [carboplatin]
Inhibition of TrxR [1]: could not inhibit
Inhibition of GR [2]: could not inhibit

O=NN(CCCl)C(=O)NCCCl [carmustine]
Inhibition of TrxR [1]: can inhibit
Inhibition of GR [2]: can inhibit

EGF: growth factor ligand of ErbB receptors
ErbB-2 (ErbB-2): −
ErbB-3 (ErbB-3): −
ErbB-4 (ErbB-4): −

N[C@@H](CCC(=O)N[C@@H](CS)C(=O)NCC(=O)O)C(=O)O [glutathione, γ-glutamyl-cysteinyl-glycine, reference compound]
Glutathione adduct on Trx (Recombinant human Trx [3]): glutathionylated at cysteine-73 (Cys73)

CC1=C(/C=C/C(C)=C/C=C/C(C)=C\C(=O)O)C(C)(C)CCC1 [13-cis-retinoic acid]
Inhibition of TrxR [1]: irreversible inhibition

TGF-α: growth factor ligand of ErbB receptors
ErbB-2 (ErbB-2): −
ErbB-3 (ErbB-3): −
ErbB-4 (ErbB-4): −

N.N.[Cl][Pt+2][Cl] [transplatin]
Inhibition of TrxR [1]: irreversibly inhibited
Inhibition of GR [2]: not GR

COc1cccc2c1C(=O)c1c(O)c3c(c(O)c1C2=O)C[C@@](O)(C(C)=O)C[C@@H]3O[C@H]1C[C@H](N)[C@H](O)[C@H](C)O1 [daunorubicin]
Inhibition of TrxR [1]: not inhibitors

N.N.O.[Cl][Pt+] [monoaquocisplatin, reference compound]
effect of extended exposure on microtubule protein polymerization [4]: notable and reproducible loss

NC(CCC(=O)NC(CSSCCS(=O)(=O)O)C(=O)NCC(=O)O)C(=O)O (centres unmarked) [mesna-glutathione]
potentiation of Erlotinib inhibition of WT EGFR kinase activity (WT EGFR kinase): effectively potentiated
IC50 (WT EGFR kinase; [6]): 724 ± 220 µM
IC50 (WT EGFR kinase; [7]): 820 ± 240 µM
IC50 (WT EGFR kinase; [8]): 1570 µM
IC50 (T790M EGFR kinase; 10 μM ATP): 1280 ± 290 µM
potentiation of Erlotinib inhibition of T790M EGFR kinase activity (T790M EGFR kinase): effectively potentiated
IC50 (T790M EGFR kinase; 100 μM ATP): 1170 ± 10 µM

betacellulin: growth factor ligand of ErbB receptors
ErbB-1 (ErbB-1): +
ErbB-2 (ErbB-2): −
ErbB-3 (ErbB-3): −
ErbB-4 (ErbB-4): +

O=C(O)CCCc1ccc(N(CCCl)CCCl)cc1 [chlorambucil]
Inhibition of TrxR [1]: irreversibly inhibited
Inhibition of GR [2]: not GR

HB-EGF: growth factor ligand of ErbB receptors
ErbB-1 (ErbB-1): +
ErbB-2 (ErbB-2): −
ErbB-3 (ErbB-3): −
ErbB-4 (ErbB-4): +

N[C@@H](Cc1ccc(N(CCCl)CCCl)cc1)C(=O)O [melphalan]
Inhibition of TrxR [1]: irreversibly inhibited
Inhibition of GR [2]: not GR

NC(CSSCCS(=O)(=O)O)C(=O)NCC(=O)O (centres unmarked) [mesna-cysteinylglycine]
potentiation of Erlotinib inhibition of WT EGFR kinase activity (WT EGFR kinase): effectively potentiated
IC50 (WT EGFR kinase; [9]): 445 ± 80 µM
IC50 (WT EGFR kinase; [10]): 370 ± 121 µM
IC50 (WT EGFR kinase; [11]): 320 µM
IC50 (T790M EGFR kinase; 10 μM ATP): 510 ± 10 µM
potentiation of Erlotinib inhibition of T790M EGFR kinase activity (T790M EGFR kinase): effectively potentiated
IC50 (T790M EGFR kinase; 100 μM ATP): 410 ± 50 µM

O=C1[O][Pt]2([NH][C@@H]3CCCC[C@H]3[NH]2)[O]C1=O [oxaliplatin]
Inhibition of TrxR [1]: irreversibly inhibited
Inhibition of GR [2]: not GR

NC(CSSCCS(=O)(=O)O)C(=O)O (centres unmarked) [mesna-cysteine]
potentiation of Erlotinib inhibition of WT EGFR kinase activity (WT EGFR kinase): effectively potentiated
IC50 (WT EGFR kinase; [9]): 2750 ± 800 µM
IC50 (WT EGFR kinase; [10]): 2650 ± 110 µM
IC50 (WT EGFR kinase; [11]): 2870 µM
IC50 (T790M EGFR kinase; 10 μM ATP): 3760 ± 260 µM
potentiation of Erlotinib inhibition of T790M EGFR kinase activity (T790M EGFR kinase): effectively potentiated
IC50 (T790M EGFR kinase; 100 μM ATP): 3030 ± 280 µM

NC(CSSCCS(=O)(=O)O)C(=O)NCC(=O)O (centres unmarked) [MSSCG, mesna-cysteinyl glycine disulfide]
more inhibition of WT EGFR relative to 4 nM Erlotinib alone (WT EGFR kinase; 10 μM ATP, 0.50 mM + 4 nM Erlotinib): 28%
more inhibition of WT EGFR relative to 4 nM Erlotinib alone (WT EGFR kinase; 10 μM ATP, 0.75 mM + 4 nM Erlotinib (MSSCG series)): 43%
Substrate preference of Trx (Recombinant human Trx [5]): preferred slightly

CS(=O)(=O)OCCCCOS(C)(=O)=O [busulfan]
Inhibition of TrxR [1]: irreversibly inhibited
Inhibition of GR [2]: not GR

NC(CCSSCCS(=O)(=O)O)C(=O)O (centres unmarked) [MSSH, mesna-homocysteine disulfide]
NADPH oxidation by TrxR and Trx (TrxR/Trx system): increases

COc1cccc2c1C(=O)c1c(O)c3c(c(O)c1C2=O)C[C@@](O)(C(=O)CO)C[C@@H]3O[C@H]1C[C@H](N)[C@H](O)[C@H](C)O1 [doxorubicin]
Inhibition of TrxR [1]: not inhibitors

neuregulin 1
ErbB-1 (ErbB-1): −
ErbB-2 (ErbB-2): −
ErbB-3 (ErbB-3): +
ErbB-4 (ErbB-4): +

amphiregulin: growth factor ligand of ErbB receptors
ErbB-1 (ErbB-1): +
ErbB-2 (ErbB-2): −
ErbB-3 (ErbB-3): −
ErbB-4 (ErbB-4): −

B1: epigen: growth factor ligand of ErbB receptors (protein, UniProt Q6UW88 23-154, looked up)
Epigen: AAVTVTPPITAQQGNWTVNKTEADNIEGPIALKFSHLCLEDHNSYCINGACAFHHELEKAICRCFTGYTGERCEHLTLTSYAVDSYEKYIAIGIGVGLLLSGFLVIFYCYIRKRCLKLKSPYNVCSGERRPL
ErbB-1 (ErbB-1): +
ErbB-2 (ErbB-2): −
ErbB-3 (ErbB-3): −
ErbB-4 (ErbB-4): −
